In the experiment the target is α-glucosidase from Saccharomyes cerevisiae (Saccharomyces cerevisiae, UniProt P53341). The experiment in a line: α-Glucosidase inhibition assay (PNPG substrate, OD 405 nm). The class given is biochemical. The note with it: for inhibition at 50 µM: read-out: %Inhibition (50 μM); for inhibition at 100 µM: read-out: %Inhibition (100 μM); for inhibitory activity against α-glucosidase, in words: at 100 μM. The method, then:
The α-glucosidase inhibitory effect was assessed using a previously described method with slight modification. 0.2 U of α-glucosidase from Saccharomyes cerevisiae purchased from Sigma-Aldrich (St. Louis, MO, USA) was diluted to 0.1 M phosphate buffer consisting of Na2HPO4 and NaH2PO4 (pH 6.8). The assay was conducted in a 200 μL reaction system containing 148 μL of the buffer, 25 μL of diluted enzyme solution, and 2 μL of DMSO or sample (dissolved in DMSO). After 20 min of incubation in the 96-well plates at 37 °C, 25 μL of 0.4 mM 4-nitrophenyl-[…]-D-glucopyranoside (PNPG, Aladdin, Shanghai, China) was added as a substrate to start the enzymatic reaction. The plate was incubated for an additional 15 min at 37 °C, followed by the measurement of the optical density (OD). The final concentrations of tested compounds were between 0.39 and 100 μM. The OD was measured at an absorbance wavelength of 405 nm using a Microplate Reader (Tecan, Switzerland).

[1] abbreviates: α-glucosidase, compound at 100 μM.

Where two headings read alike, the source gives them in different places.

Chain of α-glucosidase from Saccharomyes cerevisiae (P53341 whole entry): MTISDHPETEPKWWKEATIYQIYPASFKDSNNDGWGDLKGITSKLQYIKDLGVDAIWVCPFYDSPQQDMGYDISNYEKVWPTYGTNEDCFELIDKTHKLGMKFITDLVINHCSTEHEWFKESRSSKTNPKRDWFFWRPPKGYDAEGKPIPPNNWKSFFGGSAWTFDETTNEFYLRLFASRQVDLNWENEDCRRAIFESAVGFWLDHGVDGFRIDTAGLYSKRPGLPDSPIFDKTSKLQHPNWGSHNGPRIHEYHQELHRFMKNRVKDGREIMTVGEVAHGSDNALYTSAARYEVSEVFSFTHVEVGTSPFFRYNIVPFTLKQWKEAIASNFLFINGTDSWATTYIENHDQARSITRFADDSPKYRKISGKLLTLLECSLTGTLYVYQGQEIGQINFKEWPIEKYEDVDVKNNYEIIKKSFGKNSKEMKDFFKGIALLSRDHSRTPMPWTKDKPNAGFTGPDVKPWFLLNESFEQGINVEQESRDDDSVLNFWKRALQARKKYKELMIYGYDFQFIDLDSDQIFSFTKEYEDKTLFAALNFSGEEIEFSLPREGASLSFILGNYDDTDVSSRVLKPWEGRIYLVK

On to `CCOC(=O)[C@]1(Cc2ccc(O)c(CC=C(C)C)c2)OC(=O)C(O)=C1c1ccc(O)cc1` [Compound 7, butyrolactone VII], for which the inhibition at 50 µM turned out to be 98.7% and the inhibition at 100 µM came to 100%. In the case of `COC(=O)[C@]1(Cc2ccc(O)c(CC=C(C)C)c2)OC(=O)C(O)=C1c1ccc(O)cc1` [Compound 6, butyrolactone I], the inhibition at 50 µM was determined as 89.4% and the inhibition at 100 µM was 100%. With `COC(=O)[C@]1(Cc2ccc3c(c2)C[C@H](C(C)(C)O)O3)OC(=O)C(O)=C1c1ccc(O)cc1` [Compound 4, butyrolactone IV], the inhibition at 100 µM was found to be 37.3%. Turning to `COC(=O)[C@]1(Cc2ccc3c(c2)C[C@H](O)C(C)(C)O3)OC(=O)C(O)=C1c1ccc(O)cc1` [Compound 5, butyrolactone V], the “inhibitory activity against α-glucosidase, in words” value is “negligible inhibitory activity”. Besides, the inhibition at 100 µM under setting [1] amounted to 21.6%. Turning to `COC(=O)[C@]1(Cc2ccc3c(c2)CCC(C)(C)O3)OC(=O)C(O)=C1c1ccc(O)cc1` [Compound 8, aspernolide A], the “inhibitory activity against α-glucosidase, in words” value is “significant inhibition” and the inhibition at 100 µM worked out at 89.2%. Regarding `CCOC(=O)[C@]1(Cc2ccc3c(c2)C[C@H](C(C)(C)O)O3)OC(=O)C(O)=C1c1ccc(O)cc1` [Compound 2, Aspernolide O], the inhibition at 100 µM under setting [1] is 23.2%.

With `COC(=O)[C@]1(Cc2ccc3c(c2)C[C@H](C(C)(C)O)O3)OC(=O)C(O)=C1c1ccccc1` [Compound 1, Aspernolide N], the inhibition at 100 µM under setting [1] is 18.6%. Same read-out and setting: as for `COC(=O)[C@]1(Cc2ccc3c(c2)C=CC(C)(C)O3)OC(=O)C(O)=C1c1ccc(O)cc1` [Compound 9, aspernolide E], the figure is 90.4%; as for `CCOC(=O)[C@]1(Cc2ccc3c(c2)CC(O)C(C)(C)O3)OC(=O)C(O)=C1c1ccc(O)cc1` (stereo partly shown) [Compound 3, Aspernolide P], 26.4%.

Source of the values: publication PMC6627487, “Butenolide Derivatives with α-Glucosidase Inhibitions from the Deep-Sea-Derived Fungus Aspergillus terreus YPGA10” (Marine Drugs, 2019).
